Test results reported in the NIST ThermoML archive (doi:10.1016/j.jct.2016.10.023).

Assay: xn = mol fraction of the nth substance listed
Settings: Constant-volume piezometry

CCCCC [pentane] + CCCO
Settings	mass density [kg/m3]
433.15 K, 35839 kPa, Liquid, x1 = 0.5	609.23
433.15 K, 36095 kPa, Liquid, x1 = 0.2	661.31
433.15 K, 41420 kPa, Liquid, x1 = 0.8	572.89
437.15 K, 2040 kPa, Gas, x1 = 0.8	58.65
438.15 K, 1323 kPa, Gas, x1 = 0.5	30.1
438.15 K, 2052 kPa, Gas, x1 = 0.8	58.65
438.15 K, 2515 kPa, Liquid, x1 = 0.5	509.1
440.15 K, 2121 kPa, Liquid, x1 = 0.2	584.41
443.15 K, 781 kPa, Gas, x1 = 0.5	15.58
443.15 K, 1062 kPa, Gas, x1 = 0.8	22.61
443.15 K, 1353 kPa, Gas, x1 = 0.5	30.1
443.15 K, 1529 kPa, Gas, x1 = 0.8	36.83
443.15 K, 2108 kPa, Gas, x1 = 0.8	58.64
443.15 K, 3419 kPa, Liquid, x1 = 0.2	584.3
443.15 K, 4067 kPa, Liquid, x1 = 0.5	508.96
443.15 K, 5776 kPa, Liquid, x1 = 0.5	521.85
443.15 K, 6119 kPa, Liquid, x1 = 0.8	468.84
443.15 K, 7864 kPa, Liquid, x1 = 0.2	598.01
443.15 K, 11620 kPa, Liquid, x1 = 0.8	498.47
443.15 K, 13293 kPa, Liquid, x1 = 0.5	550.88
443.15 K, 15549 kPa, Liquid, x1 = 0.2	617.55
443.15 K, 19116 kPa, Liquid, x1 = 0.8	523.16
443.15 K, 24271 kPa, Liquid, x1 = 0.5	577.21
443.15 K, 29321 kPa, Liquid, x1 = 0.2	638.71
443.15 K, 31113 kPa, Liquid, x1 = 0.5	589.73
443.15 K, 32587 kPa, Liquid, x1 = 0.8	550.89
443.15 K, 37375 kPa, Liquid, x1 = 0.5	600.38
443.15 K, 43094 kPa, Liquid, x1 = 0.2	660.83
446.15 K, 2393 kPa, Gas, x1 = 0.8	74.06
447.15 K, 1740 kPa, Gas, x1 = 0.5	40.63
448.15 K, 1748 kPa, Gas, x1 = 0.5	40.63
448.15 K, 2548 kPa, Liquid, x1 = 0.9	408.95
448.15 K, 2624 kPa, Liquid, x1 = 0.8	419.92
449.15 K, 2796 kPa, Liquid, x1 = 0.8	419.9
451.15 K, 2529 kPa, Gas, x1 = 0.9	83.67
452.15 K, 2545 kPa, Gas, x1 = 0.9	83.66
453.15 K, 804 kPa, Gas, x1 = 0.5	15.57
453.15 K, 1101 kPa, Gas, x1 = 0.8	22.6
453.15 K, 1255 kPa, Gas, x1 = 0.2	25.01
453.15 K, 1405 kPa, Gas, x1 = 0.5	30.08
453.15 K, 1584 kPa, Gas, x1 = 0.8	36.81
453.15 K, 1789 kPa, Gas, x1 = 0.5	40.62
453.15 K, 2048 kPa, Gas, x1 = 0.5	51.26
453.15 K, 2206 kPa, Gas, x1 = 0.8	58.61
453.15 K, 2494 kPa, Gas, x1 = 0.8	74.04
453.15 K, 2562 kPa, Gas, x1 = 0.9	83.66
453.15 K, 3375 kPa, Liquid, x1 = 0.9	408.84
453.15 K, 3511 kPa, Liquid, x1 = 0.8	419.81
453.15 K, 7204 kPa, Liquid, x1 = 0.5	508.66
453.15 K, 7807 kPa, Liquid, x1 = 0.2	583.93
453.15 K, 8728 kPa, Liquid, x1 = 0.8	468.58
453.15 K, 9366 kPa, Liquid, x1 = 0.5	521.54
453.15 K, 12785 kPa, Liquid, x1 = 0.2	597.62
453.15 K, 14688 kPa, Liquid, x1 = 0.8	498.18
453.15 K, 17282 kPa, Liquid, x1 = 0.5	550.54
453.15 K, 21030 kPa, Liquid, x1 = 0.2	617.14
453.15 K, 22882 kPa, Liquid, x1 = 0.8	522.84
453.15 K, 28840 kPa, Liquid, x1 = 0.5	576.84
453.15 K, 34516 kPa, Liquid, x1 = 0.2	638.29
453.15 K, 37125 kPa, Liquid, x1 = 0.8	550.54
455.15 K, 2058 kPa, Gas, x1 = 0.5	51.26
455.15 K, 2617 kPa, Liquid, x1 = 0.5	469.97
459.15 K, 2107 kPa, Liquid, x1 = 0.2	549.17
459.25 K, 2109 kPa, Liquid, x1 = 0.2	549.17
460.15 K, 2449 kPa, Liquid, x1 = 0.2	549.14
461.15 K, 3036 kPa, Gas, x1 = 0.8	106.72
463.15 K, 825 kPa, Gas, x1 = 0.5	15.56
463.15 K, 1134 kPa, Gas, x1 = 0.8	22.59
463.15 K, 1296 kPa, Gas, x1 = 0.2	25
463.15 K, 1450 kPa, Gas, x1 = 0.5	30.07
463.15 K, 1641 kPa, Gas, x1 = 0.8	36.79
463.15 K, 1866 kPa, Gas, x1 = 0.5	40.6
463.15 K, 2150 kPa, Gas, x1 = 0.5	51.24
463.15 K, 2308 kPa, Gas, x1 = 0.8	58.58
463.15 K, 2637 kPa, Gas, x1 = 0.8	74
463.15 K, 2727 kPa, Gas, x1 = 0.9	83.62
463.15 K, 3075 kPa, Liquid, x1 = 0.5	452.77
463.15 K, 3080 kPa, Gas, x1 = 0.8	106.71
463.15 K, 3117 kPa, Liquid, x1 = 0.9	355.23
463.15 K, 3523 kPa, Liquid, x1 = 0.2	549.04
463.15 K, 3571 kPa, Liquid, x1 = 0.5	459.88
463.15 K, 4516 kPa, Liquid, x1 = 0.5	469.76
463.15 K, 5048 kPa, Liquid, x1 = 0.9	408.62
463.15 K, 5052 kPa, Liquid, x1 = 0.9	408.62
463.15 K, 5310 kPa, Liquid, x1 = 0.8	419.58
463.15 K, 10451 kPa, Liquid, x1 = 0.5	508.36
463.15 K, 11344 kPa, Liquid, x1 = 0.8	468.31
463.15 K, 12276 kPa, Liquid, x1 = 0.2	583.56
463.15 K, 12696 kPa, Liquid, x1 = 0.5	521.23
463.15 K, 17686 kPa, Liquid, x1 = 0.2	597.23
463.15 K, 17835 kPa, Liquid, x1 = 0.8	497.88
463.15 K, 20989 kPa, Liquid, x1 = 0.5	550.21
463.15 K, 26488 kPa, Liquid, x1 = 0.2	616.73
463.15 K, 26685 kPa, Liquid, x1 = 0.8	522.53
463.15 K, 33534 kPa, Liquid, x1 = 0.5	576.47
463.15 K, 41577 kPa, Liquid, x1 = 0.8	550.2
463.15 K, 41859 kPa, Liquid, x1 = 0.2	637.82
464.15 K, 3225 kPa, Liquid, x1 = 0.9	355.21
465.15 K, 3139 kPa, Gas, x1 = 0.9	123.69
466.15 K, 3167 kPa, Gas, x1 = 0.9	123.69
468.15 K, 2722 kPa, Gas, x1 = 0.5	72.79
468.15 K, 3224 kPa, Gas, x1 = 0.9	123.67
468.15 K, 3337 kPa, Liquid, x1 = 0.5	442.3
468.15 K, 3480 kPa, Liquid, x1 = 0.8	346.36
468.15 K, 3796 kPa, Liquid, x1 = 0.8	362.98
469.15 K, 3297 kPa, Gas, x1 = 0.9	134.47
469.15 K, 3585 kPa, Liquid, x1 = 0.8	346.34
470.15 K, 2757 kPa, Gas, x1 = 0.5	72.78
470.15 K, 3441 kPa, Liquid, x1 = 0.9	310.06
470.15 K, 3577 kPa, Liquid, x1 = 0.9	332
473.15 K, 846 kPa, Gas, x1 = 0.5	15.56
473.15 K, 1166 kPa, Gas, x1 = 0.8	22.58
473.15 K, 1339 kPa, Gas, x1 = 0.2	24.99
473.15 K, 1500 kPa, Gas, x1 = 0.5	30.05
473.15 K, 1696 kPa, Gas, x1 = 0.8	36.78
473.15 K, 1943 kPa, Gas, x1 = 0.5	40.58
473.15 K, 2238 kPa, Gas, x1 = 0.5	51.21
473.15 K, 2408 kPa, Gas, x1 = 0.8	58.55
473.15 K, 2703 kPa, Gas, x1 = 0.5	67.68
473.15 K, 2775 kPa, Gas, x1 = 0.8	73.97
473.15 K, 2808 kPa, Gas, x1 = 0.5	72.77
473.15 K, 2888 kPa, Gas, x1 = 0.9	83.58
473.15 K, 3309 kPa, Gas, x1 = 0.8	106.65
473.15 K, 3339 kPa, Liquid, x1 = 0.5	418.35
473.15 K, 3349 kPa, Gas, x1 = 0.9	123.64
473.15 K, 3414 kPa, Gas, x1 = 0.9	134.44
473.15 K, 3511 kPa, Gas, x1 = 0.9	164.35
473.15 K, 3553 kPa, Gas, x1 = 0.9	189.91
473.15 K, 3564 kPa, Gas, x1 = 0.9	202.87

Liquid
Settings	mass density [kg/m3]
438.95 K, x1 = 0.2	584.46
446.85 K, x1 = 0.8	419.95
447.55 K, x1 = 0.9	408.96
454.85 K, x1 = 0.5	469.97
458.15 K, x1 = 0.2	549.2
462.15 K, x1 = 0.5	452.82
462.85 K, x1 = 0.9	355.24
463.55 K, x1 = 0.8	363.07
466.15 K, x1 = 0.5	442.34
467.15 K, x1 = 0.8	346.37
467.15 K, x1 = 0.9	334.99
470.15 K, x1 = 0.8	334.76
470.15 K, x1 = 0.9	313.16
470.85 K, x1 = 0.9	302.48
471.25 K, x1 = 0.9	282.74
471.95 K, x1 = 0.9	244.86
472.05 K, x1 = 0.9	241.54
472.15 K, x1 = 0.9	237.12
472.65 K, x1 = 0.8	316.17
